Results from ChEMBL document CHEMBL4340512, “Discovery of novel triazolo[4,3-b]pyridazin-3-yl-quinoline derivatives as PIM inhibitors” (Eur J Med Chem, 2019).

What was measured:
[1] = tested on: SK-MEL19; assay: Antiproliferative activity against human SK-MEL-19 cells incubated for 72 hrs by CellTiter-Glo luminescence assay; assay type: functional; settings: SK-MEL19, 72 h
[2] = tested on: SK-MEL19; assay: Antiproliferative activity against human SK-MEL-19 assessed as combination index at 5 uM incubated for 72 hrs in presence of GI50 dose of Palbociclib by CellTiter-Glo luminescence assay; assay type: functional
[3] = tested on: SK-BR-3; assay: Antiproliferative activity against human SKBR3 cells incubated for 72 hrs by CellTiter-Glo luminescence assay; assay type: functional; settings: SK-BR-3, 72 h
[4] = tested on: T47D; assay: Antiproliferative activity against human T47D assessed as combination index at 20 uM incubated for 72 hrs in presence of GI50 dose of Lapatinib by CellTiter-Glo luminescence assay; assay type: functional
[5] = tested on: A498; assay: Antiproliferative activity against human A498 cells incubated for 72 hrs by CellTiter-Glo luminescence assay; assay type: functional; settings: A498, 72 h
[6] = tested on: SK-MEL19; assay: Antiproliferative activity against human SK-MEL-19 assessed as combination index at 5 uM incubated for 72 hrs in presence of GI50 dose of GDC-0941 by CellTiter-Glo luminescence assay; assay type: functional
[7] = tested on: BXPC-3; assay: Antiproliferative activity against human BxPC3 cells incubated for 72 hrs by CellTiter-Glo luminescence assay; assay type: functional; settings: BXPC-3, 72 h
[8] = tested on: U-87 MG; assay: Antiproliferative activity against human U87MG assessed as combination index at 20 uM incubated for 72 hrs in presence of GI50 dose of GDC-0941 by CellTiter-Glo luminescence assay; assay type: functional, U-87MG ATCC
[9] = tested on: A673; assay: Antiproliferative activity against human A673 cells incubated for 72 hrs by CellTiter-Glo luminescence assay; assay type: functional; settings: A673, 72 h
[10] = tested on: SK-MEL19; assay: Antiproliferative activity against human SK-MEL-19 assessed as combination index at 5 uM incubated for 72 hrs in presence of GI50 dose of Taxotere by CellTiter-Glo luminescence assay; assay type: functional
[11] = tested on: PANC-1; assay: Antiproliferative activity against human PANC1 cells incubated for 72 hrs by CellTiter-Glo luminescence assay; assay type: functional; settings: PANC-1, 72 h
[12] = tested on: K562; assay: Antiproliferative activity against human K562 cells incubated for 72 hrs by CellTiter-Glo luminescence assay; assay type: functional; settings: K562, 72 h
[13] = tested on: NCI-H1650; assay: Antiproliferative activity against human NCI-H1650 cells incubated for 72 hrs by CellTiter-Glo luminescence assay; assay type: functional; settings: NCI-H1650, 72 h
[14] = tested on: ASPC1; assay: Antiproliferative activity against human Aspc-1 cells incubated for 72 hrs by CellTiter-Glo luminescence assay; assay type: functional; settings: ASPC1, 72 h
[15] = biological target: Serine/threonine-protein kinase pim-2 (Homo sapiens, UniProt Q9P1W9); assay: Inhibition of His tagged human recombinant PIM2 using PIM tide (ARKRRRHPSGPPTA) as substrate incubated for 1 hr by fluorescence based assay
Sequence of Serine/threonine-protein kinase pim-2 (Q9P1W9 whole entry): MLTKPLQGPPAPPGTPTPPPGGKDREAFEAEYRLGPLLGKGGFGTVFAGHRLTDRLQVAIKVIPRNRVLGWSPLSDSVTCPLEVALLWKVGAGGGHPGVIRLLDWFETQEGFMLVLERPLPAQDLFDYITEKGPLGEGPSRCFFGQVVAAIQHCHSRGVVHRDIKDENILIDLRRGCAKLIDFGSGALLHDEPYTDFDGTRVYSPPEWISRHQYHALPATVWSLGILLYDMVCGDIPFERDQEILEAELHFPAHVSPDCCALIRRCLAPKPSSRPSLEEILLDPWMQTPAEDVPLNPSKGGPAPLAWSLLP

[16] = tested on: BT-549; assay: Antiproliferative activity against human BT549 cells incubated for 72 hrs by CellTiter-Glo luminescence assay; assay type: functional; settings: BT-549, 72 h
[17] = tested on: PC-3; assay: Antiproliferative activity against human PC3 assessed as combination index at 20 uM incubated for 72 hrs in presence of GI50 dose of Vorinostat by CellTiter-Glo luminescence assay; assay type: functional
[18] = tested on: SW480; assay: Antiproliferative activity against human SW480 cells incubated for 72 hrs by CellTiter-Glo luminescence assay; assay type: functional; settings: SW480, 72 h
[19] = tested on: JeKo-1; assay: Antiproliferative activity against human JeKo1 assessed as combination index at 10 uM incubated for 72 hrs in presence of GI50 dose of GDC-0941 by CellTiter-Glo luminescence assay; assay type: functional
[20] = tested on: MV4-11; assay: Antiproliferative activity against human MV4-11 assessed as combination index at 10 uM incubated for 72 hrs in presence of GI50 dose of Taxotere by CellTiter-Glo luminescence assay; assay type: functional
[21] = tested on: COLO 205; assay: Antiproliferative activity against human COLO205 cells incubated for 72 hrs by CellTiter-Glo luminescence assay; assay type: functional; settings: COLO 205, 72 h
[22] = tested on: Raji; assay: Antiproliferative activity against human Raji assessed as combination index at 20 uM incubated for 72 hrs in presence of GI50 dose of Palbociclib by CellTiter-Glo luminescence assay; assay type: functional
[23] = tested on: JeKo-1; assay: Antiproliferative activity against human JeKo1 cells incubated for 72 hrs by CellTiter-Glo luminescence assay; assay type: functional; settings: JeKo-1, 72 h
[24] = tested on: MV4-11; assay: Antiproliferative activity against human MV4-11 cells incubated for 72 hrs by CellTiter-Glo luminescence assay; assay type: functional; settings: MV4-11, 72 h
[25] = tested on: LNCaP; assay: Antiproliferative activity against human LNCAP cells incubated for 72 hrs by CellTiter-Glo luminescence assay; assay type: functional
[26] = tested on: MDA-MB-231; assay: Antiproliferative activity against human MDA-MB-231 assessed as combination index at 20 uM incubated for 72 hrs in presence of GI50 dose of Lapatinib by CellTiter-Glo luminescence assay; assay type: functional
[27] = tested on: SK-OV-3; assay: Antiproliferative activity against human SKOV3 cells incubated for 72 hrs by CellTiter-Glo luminescence assay; assay type: functional; settings: SK-OV-3, 72 h
[28] = tested on: DU-145; assay: Antiproliferative activity against human DU145 cells incubated for 72 hrs by CellTiter-Glo luminescence assay; assay type: functional; settings: DU-145, 72 h
[29] = tested on: PC-3; assay: Antiproliferative activity against human PC3 assessed as combination index at 20 uM incubated for 72 hrs in presence of GI50 dose of GDC-0941 by CellTiter-Glo luminescence assay; assay type: functional
[30] = biological target: Voltage-gated inwardly rectifying potassium channel KCNH2 (Homo sapiens, UniProt Q12809)
Sequence of Voltage-gated inwardly rectifying potassium channel KCNH2 (Q12809 whole entry): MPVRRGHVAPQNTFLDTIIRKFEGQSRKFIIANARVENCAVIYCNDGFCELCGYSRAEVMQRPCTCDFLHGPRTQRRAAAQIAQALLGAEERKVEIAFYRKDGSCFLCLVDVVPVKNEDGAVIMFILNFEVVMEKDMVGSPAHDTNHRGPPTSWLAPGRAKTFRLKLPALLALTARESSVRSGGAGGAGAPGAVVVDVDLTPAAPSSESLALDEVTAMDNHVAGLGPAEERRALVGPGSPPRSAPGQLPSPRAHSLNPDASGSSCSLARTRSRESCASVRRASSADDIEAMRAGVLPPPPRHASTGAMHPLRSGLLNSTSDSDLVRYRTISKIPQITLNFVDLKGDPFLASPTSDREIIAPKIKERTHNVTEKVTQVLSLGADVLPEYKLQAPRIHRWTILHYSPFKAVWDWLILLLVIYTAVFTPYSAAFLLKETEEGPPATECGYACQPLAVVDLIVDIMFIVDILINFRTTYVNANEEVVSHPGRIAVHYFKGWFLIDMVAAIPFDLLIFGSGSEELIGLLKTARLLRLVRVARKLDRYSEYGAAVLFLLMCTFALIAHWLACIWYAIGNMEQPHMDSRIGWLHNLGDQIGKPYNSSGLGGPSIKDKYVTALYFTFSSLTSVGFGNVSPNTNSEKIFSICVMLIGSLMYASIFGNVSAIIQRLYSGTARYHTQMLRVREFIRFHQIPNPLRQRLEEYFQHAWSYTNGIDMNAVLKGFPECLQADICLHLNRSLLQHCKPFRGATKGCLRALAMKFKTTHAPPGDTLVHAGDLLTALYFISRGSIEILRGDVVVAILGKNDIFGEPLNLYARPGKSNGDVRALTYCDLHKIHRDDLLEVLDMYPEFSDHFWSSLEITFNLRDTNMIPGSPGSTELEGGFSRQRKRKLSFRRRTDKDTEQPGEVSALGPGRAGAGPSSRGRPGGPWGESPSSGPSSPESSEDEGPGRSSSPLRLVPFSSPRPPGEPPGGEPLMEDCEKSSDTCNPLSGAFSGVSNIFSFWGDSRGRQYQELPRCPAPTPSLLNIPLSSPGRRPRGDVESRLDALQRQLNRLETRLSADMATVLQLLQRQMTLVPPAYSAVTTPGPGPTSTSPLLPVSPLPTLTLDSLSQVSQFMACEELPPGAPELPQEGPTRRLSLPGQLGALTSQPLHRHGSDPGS

[31] = Clearance in iv dosed Balb/c mouse administered as single dose measured after 0.08 to 4 hrs by HPLC/MS analysis; assay type: ADME, organism-based; settings: in vivo
[32] = tested on: HCT-116; assay: Antiproliferative activity against human HCT116 assessed as combination index at 20 uM incubated for 72 hrs in presence of GI50 dose of Lapatinib by CellTiter-Glo luminescence assay; assay type: functional
[33] = tested on: T47D; assay: Antiproliferative activity against human T47D cells incubated for 72 hrs by CellTiter-Glo luminescence assay; assay type: functional
[34] = tested on: A-375; assay: Antiproliferative activity against human A375 cells incubated for 72 hrs by CellTiter-Glo luminescence assay; assay type: functional; settings: A-375, 72 h
[35] = tested on: MV4-11; assay: Antiproliferative activity against human MV4-11 assessed as combination index at 10 uM incubated for 72 hrs in presence of GI50 dose of Lapatinib by CellTiter-Glo luminescence assay; assay type: functional
[36] = biological target: Serine/threonine-protein kinase pim-3 (Homo sapiens, UniProt Q86V86); assay: Inhibition of N-terminal 6-His tagged human recombinant PIM3 using PIM tide (ARKRRRHPSGPPTA) as substrate incubated for 1 hr by fluorescence based assay
[37] = tested on: HCT-116; assay: Antiproliferative activity against human HCT116 cells incubated for 72 hrs by CellTiter-Glo luminescence assay; assay type: functional; settings: HCT-116, 72 h
[38] = tested on: T47D; assay: Antiproliferative activity against human T47D assessed as combination index at 20 uM incubated for 72 hrs in presence of GI50 dose of GDC-0941 by CellTiter-Glo luminescence assay; assay type: functional

`COCCN1CCOc2c1cnn1c(-c3ccc4cccc(NCC5CCNCC5)c4n3)nnc21` showed a GI50 [1] of 1.48 µM, a CI [2] of 0.351 and a GI50 [3] of 21 µM. It also gave a CI [4] of 0.0001, a GI50 [5] of 8.98 µM and a CI [6] of 0.308. For the same compound, the GI50 [7] was 9.21 µM, the CI [8] was 0.008 and the GI50 [9] was 12.7 µM. For the same compound, the CI [10] was 0.535, the GI50 [11] was 25.4 µM and the GI50 [12] was 19.9 µM. For the same compound, the GI50 [13] was 22.5 µM, the GI50 [14] was 7.25 µM and the IC50 [15] was 5.53 µM. It also gave a GI50 [16] of 20.4 µM, a CI [17] of 0.346 and a GI50 [18] of 8.17 µM. It also gave a CI [19] of 0.295, a CI [20] of 0.526 and a GI50 [21] of 5.25 µM. For the same compound, the CI [22] was 0.52, the GI50 [23] was 7.3 µM and the GI50 [24] was 6.46 µM. The GI50 [25] was 18.6 µM, the CI [26] was 0.116 and the GI50 [27] was 23.5 µM. The GI50 [28] was 22.4 µM, the CI [29] was 0.094 and the IC50 [30] was > 20 µM. The clearance [31] was 21 mL/min/kg, the CI [32] was 0.001 and the GI50 [33] was 10.8 µM. For the same compound, the GI50 [34] was 21.8 µM, the CI [35] was 0.43 and the IC50 [36] was 0.07 µM. It also gave a GI50 [37] of 21.2 µM and a CI [38] of 0.598.
